We go through eleven compounds from patent US9085555B2, “Complement pathway modulators and uses thereof” (priority 2011, dated 2015).

The target of the assay is Factor D (Homo sapiens (Human), UniProt P00746). Description: biochemical. It counts as biochemical. The note with it: read-out: IC50.
Chain of Factor D (P00746 26-253): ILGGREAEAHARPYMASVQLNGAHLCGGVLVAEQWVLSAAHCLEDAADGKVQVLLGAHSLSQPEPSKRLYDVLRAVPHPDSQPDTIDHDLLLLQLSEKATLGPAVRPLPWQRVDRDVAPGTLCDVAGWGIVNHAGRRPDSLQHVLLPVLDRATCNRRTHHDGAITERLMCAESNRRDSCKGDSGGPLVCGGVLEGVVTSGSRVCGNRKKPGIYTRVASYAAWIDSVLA

On to `NC[C@@]1(F)C[C@@H](C(=O)Nc2cccc(OC(F)(F)F)c2)N(C(=O)Nc2cn(C(N)=O)c3ccccc23)C1` [Example 414, (2S,4S)-4-Aminomethyl-4-fluoro-pyrrolidine-1,2-dicarboxylic acid 1-[(1-carbamoyl-1H-indol-3-yl)-amide]2-[(3-trifluoromethoxy-phenyl)-amide]], for which the IC50 was 311 nM. Then `NC(=O)n1cc(NC(=O)N2C[C@H](N)[C@@H](O)[C@H]2C(=O)NCc2cccc(Cl)c2F)c2ccccc21` [Example 416, 2S,3R,4S)-4-Amino-3-hydroxy-pyrrolidine-1,2-dicarboxylic acid 1-[(1-carbamoyl-1H-indol-3-yl)-amide]2-(3-chloro-2-fluoro-benzylamide], with 315 nM; and `NC(=O)n1cc(NC(=O)N2CC[C@@H](N)[C@H]2C(=O)NCc2cccc(Cl)c2F)c2ccccc21` [Example 417, 2S,3R)-3-Amino-pyrrolidine-1,2-dicarboxylic acid 1-[(1-carbamoyl-1H-indol-3-yl)-amide]2-(3-chloro-2-fluoro-benzylamide], with 40 nM; and `NC(=O)n1cc(NC(=O)N2CC[C@@H](N)[C@H]2C(=O)N[C@@H](c2cccc(Cl)c2F)C(F)(F)F)c2ccccc21` [Example 419, (2S,3R)-3-Amino-pyrrolidine-1,2-dicarboxylic acid 1-[(1-carbamoyl-1H-indol-3-yl)-amide]2-{[(S)-1-(3-chloro-2-fluoro-phenyl)-2,2,2-trifluoro-ethyl]-amide}], with 476 nM. In the case of `NC(=O)n1cc(NC(=O)N2CC[C@H](N)[C@H]2C(=O)NCc2cccc(Cl)c2F)c2ccccc21` [Example 420, 2S,3S)-3-Amino-pyrrolidine-1,2-dicarboxylic acid 1-[(1-carbamoyl-1H-indol-3-yl)-amide]2-(3-chloro-2-fluoro-benzylamide], the IC50 came out at 1150 nM. With `NC(=O)n1cc(NC(=O)N2CC[C@H](N)[C@H]2C(=O)NCc2cccc(Cl)c2)c2ccccc21` [Example 421, 2S,3S)-3-Amino-pyrrolidine-1,2-dicarboxylic acid 1-[(1-carbamoyl-1H-indol-3-yl)-amide]2-(3-chloro-benzylamide], the IC50 turned out to be 9300 nM. With `CNC[C@@]1(F)C[C@@H](C(=O)NCc2cccc(Cl)c2F)N(C(=O)Nc2cn(C(N)=O)c3ccccc23)C1` [Example 424, 2S,4S)-4-Fluoro-4-methylaminomethyl-pyrrolidine-1,2-dicarboxylic acid 1-[(1-carbamoyl-1H-indol-3-yl)-amide]2-(3-chloro-2-fluoro-benzylamide] the figure was 68 nM.

`CN[C@H]1C[C@@H](C(=O)NCc2cccc(Cl)c2F)N(C(=O)Nc2cn(C(N)=O)c3ccccc23)C1` [Example 425, 2S,4S)-4-Methylamino-pyrrolidine-1,2-dicarboxylic acid 1-[(1-carbamoyl-1H-indol-3-yl)-amide]2-(3-chloro-2-fluoro-benzylamide]: the IC50 was 1230 nM.

Consider `COCCN[C@H]1C[C@@H](C(=O)NCc2cccc(Cl)c2F)N(C(=O)Nc2cn(C(N)=O)c3ccccc23)C1` [Example 426, 2S,4S)-4-(2-Methoxy-ethylamino)-pyrrolidine-1,2-dicarboxylic acid 1-[(1-carbamoyl-1H-indol-3-yl)-amide]2-(3-chloro-2-fluoro-benzylamide], for which the IC50 was 436 nM.

In the case of `CN(C)[C@H]1C[C@@H](C(=O)NCc2cccc(Cl)c2F)N(C(=O)Nc2cn(C(N)=O)c3ccccc23)C1` [Example 427, 2S,4S)-4-Dimethylamino-pyrrolidine-1,2-dicarboxylic acid 1-[(1-carbamoyl-1H-indol-3-yl)-amide]2-(3-chloro-2-fluoro-benzylamide], the concentration for half-maximal inhibition (IC50) was determined as 665 nM.

As to `COC1(OC)C[C@@H](C(=O)NCc2cccc(Cl)c2F)N(C(=O)Nc2cn(C(N)=O)c3ccccc23)C1` [Example 428, S)-4,4-Dimethoxy-pyrrolidine-1,2-dicarboxylic acid 1-[(1-carbamoyl-1H-indol-3-yl)-amide]2-(3-chloro-2-fluoro-benzylamide], the concentration for half-maximal inhibition (IC50) was determined as 478 nM.

What is called IC50 is the point on the concentration scale where inhibition reaches its midpoint.
